Reference: PubChem BioAssay AID330 (DTP/NCI, 2004)
Several values for one entry are separate records, joined by “and”; a condition that tells them apart may be missing. Equal values may be shown once. Toxic doses and inconclusive results are not listed. Rule for the calls: active = survival T/C of 150% or more; inactive = T/C below 125% in these data. Peptide text beside a SMILES is read from it. * marks the point of attachment. Boc = CC(C)(C)OC(=O)*; NHNH2 = NN*

Tested on: P388 leukemia ip, CD2F1 mice, survival T/C
Experiment: NCI In Vivo Anticancer Drug Screen. Data for tumor model P388 Leukemia (intraperitoneal) in CD2F1 (CDF1) mice
Conditions: endpoint: median survival time, higher = longer survival
Outline: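 Mice carrying the transplanted tumor received test compound or vehicle. Survival was recorded in each group, and the value is the treated-group measurement divided by that of the vehicle-treated control group.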

[1] = dose: 50.0 mg/kg/injection, schedule: Q01DX005 (ip), vehicle: saline with Tween-80
[2] = dose: 100.0 mg/kg/injection, schedule: Q01DX005 (ip), vehicle: saline with Tween-80
[3] = dose: 200.0 mg/kg/injection, schedule: Q01DX005 (ip), vehicle: saline with Tween-80
[4] = dose: 6.25 mg/kg/injection, schedule: Q01DX009 (ip), vehicle: Klucel (hydroxypropylcellulose) (HPC)
[5] = dose: 12.5 mg/kg/injection, schedule: Q01DX009 (ip), vehicle: Klucel (hydroxypropylcellulose) (HPC)
[6] = dose: 25.0 mg/kg/injection, schedule: Q01DX009 (ip), vehicle: Klucel (hydroxypropylcellulose) (HPC)
[7] = dose: 50.0 mg/kg/injection, schedule: Q01DX009 (ip), vehicle: saline with Tween-80
[8] = dose: 100.0 mg/kg/injection, schedule: Q01DX009 (ip), vehicle: saline with Tween-80
[9] = dose: 200.0 mg/kg/injection, schedule: Q01DX009 (ip), vehicle: saline with Tween-80
[10] = dose: 60.0 mg/kg/injection, schedule: Q01DX005 (ip), vehicle: Klucel (hydroxypropylcellulose) (HPC)
[11] = dose: 120.0 mg/kg/injection, schedule: Q01DX005 (ip), vehicle: Klucel (hydroxypropylcellulose) (HPC)
[12] = dose: 200.0 mg/kg/injection, schedule: Q01DX009 (ip), vehicle: saline

Measured: T/C

C/C(=N\NC(=S)Nc1ccc(C(=O)O)cc1)c1nccc2ccccc12
inactive: [1] 100 % of control | [2] 90 % of control | [3] 90 % of control

Cc1ccc2nc(NC(=S)S)sc2c1
inactive: [4] 100 % of control | [5] 107 % of control | [6] 113 % of control | dose: 100.0 mg/kg/injection, schedule: Q01DX009 (ip), vehicle: Klucel (hydroxypropylcellulose) (HPC) 87 % of control

O=S(=O)(O)c1ccc2c(N=Nc3ccccc3[As](=O)(O)O)c(O)c(S(=O)(=O)O)cc2c1
inactive: [7] 104 % of control | [8] 113 % of control

Cc1c(NC(=O)Nc2cc([N+](=O)[O-])ccc2Cl)c(=O)n(-c2ccccc2)n1C
inactive: dose: 60.0 mg/kg/injection, schedule: Q01DX005 (ip), vehicle: saline with Tween-80 94 % of control | dose: 120.0 mg/kg/injection, schedule: Q01DX005 (ip), vehicle: saline with Tween-80 86 % of control

CCN(CC)CCSc1nnc(-c2cc(OC)c(OC)c(OC)c2)o1
inactive: dose: 50.0 mg/kg/injection, schedule: Q04DX003 (ip), vehicle: water 100 % of control | dose: 100.0 mg/kg/injection, schedule: Q04DX003 (ip), vehicle: water 103 % of control

COc1cc(/C(C)=N/N=C(\C)c2ccc(O)c(OC)c2)ccc1O
inactive: dose: 100.0 mg/kg/injection, schedule: Q01DX001 (ip), vehicle: saline with Tween-80 100 % of control | dose: 200.0 mg/kg/injection, schedule: Q01DX001 (ip), vehicle: saline with Tween-80 95 % of control | dose: 400.0 mg/kg/injection, schedule: Q01DX001 (ip), vehicle: saline with Tween-80 100 % of control

CC(C)(N)C(=O)O
inactive: dose: 12.5 mg/kg/injection, schedule: Q01DX009 (ip), vehicle: saline with Tween-80 101 % of control | dose: 25.0 mg/kg/injection, schedule: Q01DX009 (ip), vehicle: saline with Tween-80 94 % of control | [7] 100 % of control | [8] 94 % of control | [9] 100 % of control | dose: 400.0 mg/kg/injection, schedule: Q01DX009 (ip), vehicle: saline with Tween-80 94 % of control | dose: 800.0 mg/kg/injection, schedule: Q01DX009 (ip), vehicle: saline with Tween-80 94 % of control | dose: 1600.0 mg/kg/injection, schedule: Q01DX009 (ip), vehicle: saline with Tween-80 94 % of control

Cn1cnc([N+](=O)[O-])c1Sc1ncnc2nc[nH]c12
inactive: dose: 216.0 mg/kg/injection, schedule: Q01DX001 (ip), vehicle: saline with Tween-80 106 % of control and 122 % of control | dose: 360.0 mg/kg/injection, schedule: Q01DX001 (ip), vehicle: saline with Tween-80 118 % of control | dose: 600.0 mg/kg/injection, schedule: Q01DX001 (ip), vehicle: saline with Tween-80 108 % of control and 79 % of control

NC(=O)NN(Cc1ccc(Br)cc1)N=O
inactive: dose: 100.0 mg/kg/injection, schedule: Q01DX001 (ip), vehicle: Klucel (hydroxypropylcellulose) (HPC) 96 % of control | dose: 200.0 mg/kg/injection, schedule: Q01DX001 (ip), vehicle: Klucel (hydroxypropylcellulose) (HPC) 97 % of control | dose: 400.0 mg/kg/injection, schedule: Q01DX001 (ip), vehicle: Klucel (hydroxypropylcellulose) (HPC) 97 % of control

[O-][N+]1(CC[N+]2([O-])CCCCC2)CCCCC1
inactive: dose: 60.0 mg/kg/injection, schedule: Q01DX005 (ip), vehicle: saline 97 % of control | dose: 120.0 mg/kg/injection, schedule: Q01DX005 (ip), vehicle: saline 100 % of control | dose: 240.0 mg/kg/injection, schedule: Q01DX005 (ip), vehicle: saline 97 % of control

CCOC(=O)C(C(=O)OCC)=C(N)C(Cl)(Cl)Cl
inactive: dose: 25.0 mg/kg/injection, schedule: Q01DX005 (ip), vehicle: Klucel (hydroxypropylcellulose) (HPC) 116 % of control | dose: 50.0 mg/kg/injection, schedule: Q01DX005 (ip), vehicle: Klucel (hydroxypropylcellulose) (HPC) 117 % of control | dose: 100.0 mg/kg/injection, schedule: Q01DX005 (ip), vehicle: Klucel (hydroxypropylcellulose) (HPC) 111 % of control | dose: 200.0 mg/kg/injection, schedule: Q01DX005 (ip), vehicle: Klucel (hydroxypropylcellulose) (HPC) 110 % of control

CCCn1cnc(C(=O)OC)c1O (tested in a mixture with another compound)
inactive: dose: 100.0 mg/kg/injection, schedule: Q04DX002 (ip), vehicle: water 101 % of control | dose: 200.0 mg/kg/injection, schedule: Q04DX002 (ip), vehicle: water 104 % of control | dose: 400.0 mg/kg/injection, schedule: Q04DX002 (ip), vehicle: water 101 % of control

COc1cc(CNC(=O)CCCC/C=C\C(C)C)ccc1OC(=O)/C=C/c1ccccc1
inactive: dose: 1.55 mg/kg/injection, schedule: Q01DX009 (ip), vehicle: Klucel (hydroxypropylcellulose) (HPC) 100 % of control | dose: 3.1 mg/kg/injection, schedule: Q01DX009 (ip), vehicle: Klucel (hydroxypropylcellulose) (HPC) 106 % of control | dose: 6.2 mg/kg/injection, schedule: Q01DX009 (ip), vehicle: Klucel (hydroxypropylcellulose) (HPC) 103 % of control

CS(=O)(=O)c1cc(C(=O)O)cc(NCc2ccccc2)c1Oc1ccccc1
inactive: [7] 106 % of control | [8] 96 % of control | [9] 102 % of control

CC1(C)OC(=O)C(=CN(C2CCCCC2)C2CCCCC2)C(=O)O1
inactive: [10] 96 % of control | [11] 86 % of control

CC(/C=N/Nc1ccccc1)=N\N=c1/scc(-c2ccc(C)cc2)n1C1CCCCC1
inactive: [1] 94 % of control | [2] 96 % of control | [3] 89 % of control

CCOc1c(OC)cc(-c2n[nH]c(=S)o2)cc1OC
inactive: dose: 100.0 mg/kg/injection, schedule: Q04DX003 (ip), vehicle: Klucel (hydroxypropylcellulose) (HPC) 101 % of control | dose: 200.0 mg/kg/injection, schedule: Q04DX003 (ip), vehicle: Klucel (hydroxypropylcellulose) (HPC) 95 % of control | dose: 400.0 mg/kg/injection, schedule: Q04DX003 (ip), vehicle: Klucel (hydroxypropylcellulose) (HPC) 100 % of control

O=NC1C(=O)NC(=S)NC1=O
inactive: dose: 12.5 mg/kg/injection, schedule: Q04DX002 (ip), vehicle: saline with Tween-80 100 % of control

CC(C)CC(NC(=O)C(Cc1c[nH]c2ccccc12)NC(=O)OC(C)(C)C)C(=O)NN (stereo not drawn) (Boc-Trp-Leu-NHNH2; configuration not given here)
inactive: dose: 12.5 mg/kg/injection, schedule: Q01DX009 (ip), vehicle: other 100 % of control | dose: 25.0 mg/kg/injection, schedule: Q01DX009 (ip), vehicle: other 94 % of control | dose: 50.0 mg/kg/injection, schedule: Q01DX009 (ip), vehicle: other 97 % of control | dose: 100.0 mg/kg/injection, schedule: Q01DX009 (ip), vehicle: other 105 % of control and 110 % of control

CC1=CC(O)(c2nc3ccccc3s2)CC(C)(C)C1 (stereo unspecified)
inactive: [10] 93 % of control | [11] 94 % of control | dose: 240.0 mg/kg/injection, schedule: Q01DX005 (ip), vehicle: Klucel (hydroxypropylcellulose) (HPC) 92 % of control

COc1ccccc1OC(C)=O
inactive: dose: 50.0 mg/kg/injection, schedule: Q01DX009 (ip), vehicle: saline 97 % of control | [12] 88 % of control

C[S+](C)C
inactive: dose: 100.0 mg/kg/injection, schedule: Q01DX009 (ip), vehicle: saline 110 % of control | [12] 110 % of control | dose: 400.0 mg/kg/injection, schedule: Q01DX009 (ip), vehicle: saline 110 % of control

CC1CN(/N=C/c2ccc([N+](=O)[O-])o2)C(=O)O1 (stereo unspecified)
inactive: [4] 108 % of control | [5] 106 % of control | [6] 103 % of control | dose: 50.0 mg/kg/injection, schedule: Q01DX009 (ip), vehicle: Klucel (hydroxypropylcellulose) (HPC) 103 % of control
